Results on 1 molecule are retold here after patent publication US20220194938A1, “NOVEL COMPOUNDS AND PHARMACEUTICAL COMPOSITIONS THEREOF FOR THE TREATMENT OF INFLAMMATORY DISORDERS” (GALAPAGOS NV, priority 2019, published 2022).

As usually defined, the IC50 is the point on the concentration scale where inhibition reaches its midpoint.

The target of one data set is T1, human IRAK-4 (Homo sapiens, UniProt Q9NWZ3).
T1 construct: purchased Carna Biosciences 09 145
T1 sequence (Q9NWZ3 1-460): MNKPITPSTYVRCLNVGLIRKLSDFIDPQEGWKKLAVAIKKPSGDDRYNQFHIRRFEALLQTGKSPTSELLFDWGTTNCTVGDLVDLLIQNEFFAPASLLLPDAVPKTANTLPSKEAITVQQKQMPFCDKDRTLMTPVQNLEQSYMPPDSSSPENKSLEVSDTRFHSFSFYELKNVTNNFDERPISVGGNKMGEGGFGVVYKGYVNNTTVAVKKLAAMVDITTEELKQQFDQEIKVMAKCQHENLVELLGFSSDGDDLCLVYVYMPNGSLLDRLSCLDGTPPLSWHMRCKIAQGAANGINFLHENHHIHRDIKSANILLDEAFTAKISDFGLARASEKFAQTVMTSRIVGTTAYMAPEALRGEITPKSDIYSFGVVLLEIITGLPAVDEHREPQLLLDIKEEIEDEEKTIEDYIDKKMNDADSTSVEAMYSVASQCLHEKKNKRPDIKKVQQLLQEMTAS
Put plainly: Phosphorylation IC50 determination for human IRAK-4 (ADP-Glo kinase assay). The note with it: human IRAK-4, RIP140 substrate, Km ATP; read-out: IRAK4 ADPglo biochemical assay IC50. The procedure, abridged:
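IRAK-4 phosphorylation of RIP140 at Km ATP in Tris pH 7.5 buffer with Triton X-100, EGTA, MgCl2, DTT and MnCl2, 120 min at room temperature. ADP formed was measured by ADP-Glo luminescence. Ten-point, 5-fold dilutions (highest final 20 μM, automated format; 1% DMSO), normalised to staurosporine (100%) and DMSO (0%) controls.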
(In general: ADP-Glo first removes unused ATP, then detects ADP through luciferase.)

Data set [1] deals with pooled cryopreserved hepatocytes. Put plainly: Metabolic stability in hepatocytes (mouse). The format is in vitro ADME. The settings on record: 1 μM test compound. Summed up:
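Test compound at 1 μM (0.03% DMSO) incubated with 0.5 million viable pooled cryopreserved hepatocytes/mL at 37° C with shaking; sampled 0–180 min. Parent loss measured by LC-MS/MS versus time-zero, and intrinsic clearance derived from percentage-remaining plots, scaled to L/h/kg and corrected for hepatocyte binding.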

As to `CCNC(=O)c1cc2nc(CCC(C)(C)O)cn2cc1NC(=O)c1cccc(C(F)(F)F)n1` [Compound 49, N-ethyl-2-(3-hydroxy-3-methylbutyl)-6-(6-(trifluoromethyl)picolinamido)imidazo[1,2-a]pyridine-7-carboxamide], the IC50 on human IRAK-4 was 0.1 to 5 nM. In data set [1], the “Mouse (Perc. remaining at 90 min)” value is on record as 87.15%.
